In patent publication US20190002436A1, “RESPIRATORY SYNCYTIAL VIRUS INHIBITORS” (MEDIVIR AB, priority 2015, published 2019) one finds EC50 data, which are given here for 29 compounds.

For the test, the system named is RSV (Long). The test can be described thus: RSV cytopathic effect (CPE)-based viral replication assay. The format is cell-based, respiratory syncytial virus (RSV). As to conditions: HEp-2 cells infected with RSV Long at MOI 0.015, 3 days at 37° C., cell viability by CellTiter-Glo luminescence, read-out: EC50 (nm). How it is done: Example A: RSV Cytopathic Effect
Compounds of the invention are initially tested in a cytopathic effect (CPE)-based viral replication assay using immortalized cells and a laboratory strain of RSV (Long). This assay evaluates the ability of a compound to inhibit viral replication.
Assay plates are prepared by seeding 2,500 HEp-2 cells (ATCC) per well of a 384-well black clear-bottom plate (Greiner Bio-One) in 20 μL of assay media (defined as DMEM supplemented with 2% heat-inactivated fetal bovine serum and 1% Penicillin/Streptomycin). Assay plates are incubated overnight at 37° C. in an incubator containing 5% CO2. The following day, a 10-point serial dilution of test compound is prepared in DMSO. Compounds are subsequently diluted with assay media and 20 μL of diluted compound (containing 1.5% DMSO) is transferred to an assay plate for evaluation of antiviral activity.
For the CPE assay, cells are infected at a Multiplicity of Infection (MOI) of 0.015 using 20 μL of RSV Long (ATCC) diluted in assay media. The DMSO concentration is constant throughout the assay plate, including the negative and positive controls. The assay plate is incubated for 3 days at 37° C. in an incubator containing 5% CO2. Cell viability is evaluated with the addition of 10 μL of CellTiter-Glo (ProMega). Luminescence is measured using an EnVision plate reader (Perkin Elmer). EC50 values are calculated using the raw data from the CPE assays.

Where [1] appears, read: human respiratory syncytial virus, HEp-2, 72 h.

Where two headings read alike, the source gives them in different places.

With `O=c1n(Cc2ncc3ccccc3c2CCCCF)c2cnccc2n1C1CC1` [Example 57, 1-Cyclopropyl-3-((4-(4-fluorobutyl)isoquinolin-3-yl)methyl)-1H-imidazo[4,5-c]pyridin-2(3H)-one], the EC50 under setting [1] worked out at 3.4 nM.

Take `CS(=O)(=O)N1CC2(C1)C(=O)N(Cc1ncc3ccccc3c1CF)c1ccccc12` [Example 59]: the EC50 was 5.7 nM.

Regarding `N#Cc1ccc(-c2c(CN3C(=O)C4(CN(C(=O)C5(N)CC5)C4)c4ccccc43)ncc3ccccc23)cn1` [Example 60c, 5-(3-((1-(1-Aminocyclopropanecarbonyl)-2′-oxospiro[azetidine-3,3′-indolin]-1′-yl)methyl)isoquinolin-4-yl)picolinonitrile], the EC50 under setting [1] came to 25 nM.

Turning to `CC1(S(=O)(=O)N2CC3(C2)C(=O)N(Cc2ncc4ccccc4c2-c2ccc(C#N)nc2)c2ccccc23)CC1` [Example 61], under setting [1], the EC50 came out at 4.4 nM.

With `CN(C)C1(C(=O)N2CC3(C2)C(=O)N(Cc2ncc4ccccc4c2-c2ccc(C#N)nc2)c2ccccc23)CC1` [Example 62, 5-(3-((1-(1-(dimethylamino)cyclopropanecarbonyl)-2′-oxospiro[azetidine-3,3′-indolin]-1′-yl)methyl)isoquinolin-4-yl)picolinonitrile], the EC50 under setting [1] stood at 10 nM.

For the compound `CNC1(C(=O)N2CC3(C2)C(=O)N(Cc2ncc4ccccc4c2-c2ccc(C#N)nc2)c2ccccc23)CC1` [Example 63, 5-(3-((1-(1-(Methylamino)cyclopropanecarbonyl)-2′-oxospiro[azetidine-3,3′-indolin]-1′-yl)methyl)isoquinolin-4-yl)picolinonitrile], the EC50 under setting [1] came out at 1.5 nM.

Regarding `N#Cc1ccc(-c2c(CN3C(=O)C4(CN(C(=O)OCCO)C4)c4ccccc43)ncc3ccccc23)cn1` [Example 64, 2-Hydroxyethyl 1′-((4-(6-cyanopyridin-3-yl)isoquinolin-3-yl)methyl)-2′-oxospiro[azetidine-3,3′-indoline]-1-carboxylate], under setting [1], the EC50 came to 1.6 nM.

As for `N#Cc1ccc(-c2c(CN3C(=O)C4(CCN(C(=O)C5(N)CC5)CC4)c4ccncc43)ncc3ccccc23)cn1` [Example 65, 5-(3-((1-(1-aminocyclopropanecarbonyl)-2′-oxospiro[piperidine-4,3′-pyrrolo[2,3-c]pyridin]-1′(2′H)-yl)methyl)isoquinolin-4-yl)picolinonitrile], under setting [1], the EC50 was determined as 6.4 nM.

Take `CS(=O)(=O)N1CCC2(CC1)C(=O)N(Cc1ncc3ccccc3c1-c1ccc(C#N)nc1)c1cnccc12` [Example 66-1, 5-(3-((1-(Methylsulfonyl)-2′-oxospiro[piperidine-4,3′-pyrrolo[2,3-c]pyridin]-1′(2′H)-yl)methyl)isoquinolin-4-yl)picolinonitrile]: the EC50 under setting [1] turned out to be 2.6 nM.

Regarding `N#Cc1ccc(-c2c(CN3C(=O)C4(CCN(C(=O)C(F)(F)F)CC4)c4ccncc43)ncc3ccccc23)cn1` [Example 66-2, 5-(3-((2′-Oxo-1-(2,2,2-trifluoroacetyl)spiro[piperidine-4,3′-pyrrolo[2,3-c]pyridin]-1′(2′H)-yl)methyl)isoquinolin-4-yl)picolinonitrile], the EC50 under setting [1] was 6 nM.

Turning to `CNC1(C(=O)N2CCC3(CC2)C(=O)N(Cc2ncc4ccccc4c2-c2ccc(C#N)nc2)c2cnccc23)CC1` [Example 67, 5-(3-((1-(1-(Methylamino)cyclopropanecarbonyl)-2′-oxospiro[piperidine-4,3′-pyrrolo[2,3-c]pyridin]-1′(2′H)-yl)methyl)isoquinolin-4-yl)picolinonitrile], the EC50 under setting [1] came to 8.2 nM.

Regarding `N#Cc1ccc(-c2c(CN3C(=O)C4(CCN(C(=O)OCCO)CC4)c4ccncc43)ncc3ccccc23)cn1` [Example 68, 2-hydroxyethyl 1′-((4-(6-cyanopyridin-3-yl)isoquinolin-3-yl)methyl)-2′-oxo-1′,2′-dihydrospiro[piperidine-4,3′-pyrrolo[2,3-c]pyridine]-1-carboxylate], the EC50 under setting [1] was found to be 2.5 nM.

For `CS(=O)(=O)c1ccc(-c2c(Cn3c(=O)n(C4CC4)c4ccncc43)ncc3ccccc23)cc1` [Example 69d, 1-cyclopropyl-3-((4-(4-(methylsulfonyl)phenyl)isoquinolin-3-yl)methyl)-1H-imidazo[4,5-c]pyridin-2(3H)-one], under setting [1], the EC50 was found to be 5.8 nM.

Regarding `CS(=O)(=O)c1ccc(-c2c(Cn3c(=O)n(C4CC4)c4ccncc43)ncc3ccccc23)cn1` [Example 70c, 1-Cyclopropyl-3-((4-(6-(methylsulfonyl)pyridin-3-yl)isoquinolin-3-yl)methyl)-1H-imidazo[4,5-c]pyridin-2(3H)-one], the EC50 under setting [1] is 19 nM.

Turning to `CC(C)(C)c1ccc(-c2c(CN3C(=O)C4(CN(S(C)(=O)=O)C4)c4ccccc43)ncc3ccccc23)cc1` [Example 71, 1′-((4-(4-(Tert-butyl)phenyl)isoquinolin-3-yl)methyl)-1-(methylsulfonyl)spiro[azetidine-3,3′-indolin]-2′-one], the EC50 under setting [1] came out at 200 nM.

Take `CS(=O)(=O)N1CC2(C1)C(=O)N(Cc1ncc3ccccc3c1-c1cc(F)cc(F)c1)c1ccccc12` [Example 72]: under setting [1], the EC50 came out at 5.6 nM.

For the compound `COC(=O)N1CC2(C1)C(=O)N(Cc1ncc3ccccc3c1-c1ccc(F)nc1)c1ccccc12` [Example 73], the EC50 under setting [1] was 1.6 nM.

As to `CS(=O)(=O)N1CC2(C1)C(=O)N(Cc1ncc3ccccc3c1-c1ccc(F)cc1)c1ccccc12` [Example 74], the EC50 under setting [1] was found to be 5.8 nM.

For the compound `CS(=O)(=O)N1CC2(C1)C(=O)N(Cc1ncc3ccccc3c1-c1ccc(F)c(F)c1)c1ccccc12` [Example 75], the EC50 under setting [1] turned out to be 7.1 nM.

Take `CS(=O)(=O)N1CC2(C1)C(=O)N(Cc1ncc3ccccc3c1-c1ccc(C#N)cc1)c1ccccc12` [Example 76]: the EC50 under setting [1] came to 2.5 nM.

With `N#Cc1ccc(-c2c(CN3C(=O)C4(CN(C(N)=O)C4)c4ccccc43)ncc3ccccc23)cn1` [Example 77], the EC50 under setting [1] is 3 nM.

Consider `CS(=O)(=O)N1CC2(C1)C(=O)N(Cc1ncc3ccccc3c1-c1ccc(F)nc1)c1ccccc12` [Example 78], for which the EC50 under setting [1] stood at 0.9 nM.

Consider `CS(=O)(=O)N1CC2(C1)C(=O)N(Cc1ncc3ccccc3c1-c1ccc(C(F)(F)F)cc1)c1ccccc12` [Example 79, 1-(Methylsulfonyl)-1′-((4-(4-(trifluoromethyl)phenyl)isoquinolin-3-yl)methyl)spiro[azetidine-3,3′-indolin]-2′-one], for which the EC50 under setting [1] is 8.7 nM.

With `CC(C)(C)NC(=O)N1CC2(C1)C(=O)N(Cc1ncc3ccccc3c1-c1ccc(C#N)nc1)c1ccccc12` [Example 81], the EC50 under setting [1] was found to be 1.4 nM.

As to `N#Cc1ccc(-c2c(CN3c4ccccc4[C@]4(C[C@H](O)C4)C3=O)ncc3ccccc23)cn1` [Example 82], the EC50 under setting [1] was found to be 11 nM.

Take `N#Cc1ccc(-c2c(CN3c4ccccc4[C@]4(C[C@@H](O)C4)C3=O)ncc3ccccc23)cn1` [Example 83]: the EC50 under setting [1] turned out to be 9 nM.

Consider `COC(=O)NC1CC2(C1)C(=O)N(Cc1ncc3ccccc3c1-c1ccc(C#N)nc1)c1ccccc12` (centres unmarked) [Example 84-1], for which, under setting [1], the EC50 came to 7.2 nM.

Regarding `COC(=O)NC1CC2(C1)C(=O)N(Cc1ncc3ccccc3c1-c1ccc(C#N)nc1)c1ccccc12` (centres unmarked) [Example 84-2], the EC50 is 4.5 nM.

Regarding `COCCN1CC2(C1)C(=O)N(Cc1ncc3ccccc3c1-c1ccc(F)nc1)c1ccccc12` [Example 85c, 1′-((4-(6-Fluoropyridin-3-yl)isoquinolin-3-yl)methyl)-1-(2-methoxyethyl)spiro[azetidine-3,3′-indolin]-2′-one], under setting [1], the EC50 came out at 42 nM.
